Measured values taken from patent publication US20240226097A1, “METHODS OF CANCER TREATMENT USING A COMBINATION OF BTK INHIBITORS AND PI3 KINASE INHIBITORS” (priority 2021, published 2024).

What was measured:
Format in all cases: in vivo
[1] = tested on: Farage cells; test: Farage DLBCL xenograft mouse model, tumor growth inhibition; conditions: single agent, day 25
Procedure: Farage cells are of DLBCL origin. Farage cells were cultured in RPMI1640 complete medium supplemented with 10% (v/v) fetal bovine serum, and 100 μg/mL of penicillin and streptomycin. On the day of implantation, aggregated cells were dispersed. Four hours later, media was removed and the cells were collected as described above. Cells were re-suspended in cold (4° C.) PBS and same volume of matrigel was added to give a final concentration of 1.5×10^7 cells/mL for Farage. Re-suspended cells were placed on ice prior to inoculation. The right flank region of each mouse (NCG) was cleaned with 75% ethanol prior to cell inoculation. Animals were then injected subcutaneously with 3×10^6 Farage cells in 100 μl of cell suspension in the right front flank via a 26-gauge needle.
The animals were randomly divided into 6 groups with 10 mice per group. The groups consisted of vehicle group (0.5% (w/v) methylcellulose solution), 7.5 mg/kg BTK-1 (dissolved in 0.5% (w/v) methylcellulose solution), 12 mg/kg Compound 2 (dissolved in 0.5% (w/v) methylcellulose solution), 36 mg/kg Compound 2 (dissolved in 0.5% (w/v) methylcellulose solution), and the combination of Compound 2 and BTK-1 (12 mg/kg and 7.5 mg/kg, respectively), or (36 mg/kg and 7.5 mg/kg, respectively), see Table 4. BTK-1 and Compound 2 were administered as a combination by oral gavage (p.o.) twice daily (BID). After implantation, primary tumor volume was measured in two dimensions using a caliper. Compound 2 was (S)-3-(1-(8-amino-1-methylimidazo [1,5-a] pyrazin-3-yl) ethyl)-5-chloro-6-fluoro-2-isopropoxy-N-(2-(4-methylpiperazin-1-yl) ethyl) benzamide fumarate.
(§1) Individual body weight was recorded twice weekly, with mice being monitored daily for clinical signs of toxicity for the duration of the study. […]
(§2) Tumor volume was calculated using the formula: V=0.5×(a×b^2) where a and b are the long and short diameters of the tumor, respectively. Tumor growth inhibition (TGI) was calculated using the formula in the above examples.

[2] = tested on: JeKo-1 cells; test: JeKo-1 MCL xenograft mouse model, tumor growth inhibition; conditions: single agent, day 21
Procedure: JeKo-1 cells are of mantle cell lymphoma (MCL) origin. These cells were cultured in RPMI1640 complete medium supplemented with 10% (v/v) fetal bovine serum, and 100 μg/mL of penicillin and streptomycin. NOD/SCID mice were pre-treated with cyclophosphamide (prepared in saline, 100 mg/kg, i.p.) and disulfiram (prepared in 0.8% Tween-80 in saline, 125 mg/kg, p.o., two hours after each dose of cyclophosphamide) once daily for two days.
On the day of implantation, aggregated cells were dispersed. Four hours later, the media was removed, and the cells were collected and re-suspended in cold (4° C.) DPBS with a final concentration of 1×10^8 cells/mL. Re-suspended cells were placed on ice prior to inoculation. The right flank region of each mouse was cleaned with 75% ethanol prior to cell inoculation. Animals were then co-injected subcutaneously with 1×10^7 JeKo-1 cells in 100 μL of cell suspension in the right front flank via a 26-gauge needle.
Animals were randomly divided into six groups with 10 mice per group. The groups consisted of vehicle group (0.5% (w/v) methylcellulose solution), 7.5 mg/kg BTK-1 (dissolved in 0.5% (w/v) methylcellulose solution), 12 mg/kg Compound 2 (dissolved in 0.5% (w/v) methylcellulose solution), 36 mg/kg Compound 2 (dissolved in 0.5% (w/v) methylcellulose solution), and the combination of Compound 2/BTK-1 (12 mg/kg Compound 2 and 7.5 mg/kg BTK-1), or (36 mg/kg Compound 2 and 7.5 mg/kg BTK-1), see Table 1. […]
Both compounds were administered by oral gavage (p.o.) twice daily (BID). After implantation, primary tumor volume was measured in two dimensions using a caliper.
as §1
(§3) Tumor volume was calculated using the formula: V=0.5×(a×b^2) where a and b are the long and short diameters of the tumor, respectively. Tumor growth inhibition (TGI) was calculated using the following formula: % TGI=100×[1−(treatedt/vehiclet)](treatedt=treated tumor volume at time t) and (vehiclet=vehicle tumor volume at time t)

[3] = tested on: TMD8 cells; test: TMD8 DLBCL xenograft mouse model, tumor growth inhibition; conditions: single agent, day 14
Procedure: TMD8 cells are of DLBCL origin. TMD8 cells were cultured in RPMI1640 complete medium supplemented with 10% (v/v) fetal bovine serum, and 100 μg/mL of penicillin and streptomycin. On the day of implantation, aggregated cells were dispersed. Four hours later, media was removed, and the cells were collected as described above. Cells were re-suspended in cold (4° C.) PBS and same volume of matrigel was added to give a final concentration of 5×10^7 cells/mL for TMD8. Re-suspended cells were placed on ice prior to inoculation. The right flank region of each mouse (NOD/SCID) was cleaned with 75% ethanol prior to cell inoculation. Animals were then injected subcutaneously with 1×10^7 TMD8 cells in 200 μl of cell suspension in the right front flank via a 26-gauge needle.
On day 15 after inoculation, animals were randomly divided into 8 groups with 10 mice per group according to the tumor volume. The groups consisted of vehicle group (0.5% (w/v) methylcellulose solution), 2.5 mg/kg BTK-1 (dissolved in 0.5% (w/v) methylcellulose solution), 10 mg/kg Compound 1 (dissolved in 0.5% (w/v) methylcellulose solution), 30 mg/kg Compound 1 (dissolved in 0.5% (w/v) methylcellulose solution), 100 mg/kg Compound 1 (dissolved in 0.5% (w/v) methylcellulose solution) and the combination of Compound 1/BTK-1 (10 mg/kg Compound 1 and 2.5 mg/kg BTK-1), (30 mg/kg Compound 1 and 2.5 mg/kg BTK-1), or (100 mg/kg Compound 1 and 2.5 mg/kg BTK-1), see Table 3. BTK-1 and Compound 1 were administered by oral gavage (p.o.) twice daily (BID). After implantation, primary tumor volume was measured in two dimensions using a caliper. Compound 1 was (S)-3-(1-(8-amino-1-methylimidazo[1,5-a] pyrazin-3-yl)ethyl)-5-chloro-6-fluoro-2-isopropoxy-N-(2-(4-methylpiperazin-1-yl)ethyl)benzamide.
Individual body weight was recorded twice weekly, with mice being monitored daily for clinical signs of toxicity for the duration of the study. Mice were euthanized using carbon dioxide when their tumor volume reached 2,000 mm^3 after twice measurements, the tumor was ulcerated, or body weight loss exceeded 20%.
as §2

[4] = tested on: MINO cells; test: MINO MCL xenograft mouse model, tumor growth inhibition; conditions: single agent, day 24
Procedure: MINO cells are of MCL origin. The MINO cells were cultured in RPMI1640 complete medium supplemented with 10% (v/v) fetal bovine serum, and 100 μg/mL of penicillin and streptomycin. On the day of implantation, aggregated cells were dispersed. Four hours later, media was removed, and the cells were collected as described above. Cells were re-suspended in cold (4° C.) PBS with a final concentration of 1×10^8 cells/mL. Re-suspended cells were placed on ice prior to inoculation. The right flank region of each mouse (NOD/SCID) was cleaned with 75% ethanol prior to cell inoculation. Animals were then injected subcutaneously with 1×10^7 MINO cells in 100 μl of cell suspension in the right front flank via a 26-gauge needle.
On day 1 after inoculation, animals were randomly divided into 6 groups with 10 mice per group according to the inoculation order. The groups consisted of vehicle group (0.5% (w/v) methylcellulose solution), 7.5 mg/kg BTK-1 (dissolved in 0.5% (w/v) methylcellulose solution), 12 mg/kg Compound 2 (dissolved in 0.5% (w/v) methylcellulose solution), 36 mg/kg Compound 2 (dissolved in 0.5% (w/v) methylcellulose solution) and the combination of Compound 2/BTK-1 (12 mg/kg Compound 2 and 7.5 mg/kg BTK-1), or (36 mg/kg Compound 2 and 7.5 mg/kg BTK-1), see Table 2. The compounds were administered by oral gavage (p.o.) twice daily (BID). After implantation, primary tumor volume was measured in two dimensions using a caliper. Compound 2 was (S)-3-(1-(8-amino-1-methylimidazo[1,5-a]pyrazin-3-yl)ethyl)-5-chloro-6-fluoro-2-isopropoxy-N-(2-(4-methylpiperazin-1-yl)ethyl)benzamide fumarate.
Mice were euthanized using carbon dioxide when their tumor volume reached 2,000 mm^3 after twice measurements, the tumor was ulcerated, or body weight loss exceeded 20%.
as §3

[5] = Bioavailability of salts of Compound 1; conditions: among different salts of Compound 1

C=CC(=O)N1CCC([C@@H]2CCNc3c(C(N)=O)c(-c4ccc(Oc5ccccc5)cc4)nn32)CC1 [BTK-1, (S)-7-(1-acryloylpiperidin-4-yl)-2-(4-phenoxyphenyl)-4,5,6,7-tetra-hydropyrazolo[1,5-a]pyrimidine-3-carboxamide]
% TGI ([1]; 7.5 mg/kg p.o. BID): 43%
% TGI ([2]; 7.5 mg/kg p.o. BID): 43%
% TGI ([3]; 2.5 mg/kg p.o. BID): 68%
% TGI ([4]; 7.5 mg/kg p.o. BID): 22%

Cc1nc([C@@H](C)c2cc(Cl)c(F)c(C(=O)NCCN3CCN(C)CC3)c2OC(C)C)n2ccnc(N)c12 [Compound 1, (S)-3-(1-(8-amino-1-methylimidazo[1,5-a]pyrazin-3-yl)ethyl)-5-chloro-6-fluoro-2-isopropoxy-N-(2-(4-methylpiperazin-1-yl)ethyl)benzamide]
% TGI ([3]; 10 mg/kg p.o. BID): 27%
% TGI ([3]; 30 mg/kg p.o. BID): 26%
% TGI ([3]; 100 mg/kg p.o. BID): 43%

Cc1nc([C@@H](C)c2cc(Cl)c(F)c(C(=O)NCCN3CCN(C)CC3)c2OC(C)C)n2ccnc(N)c12.O=C(O)/C=C/C(=O)O [Compound 2, (S)-3-(1-(8-amino-1-methylimidazo[1,5-a]pyrazin-3-yl)ethyl)-5-chloro-6-fluoro-2-isopropoxy-N-(2-(4-methylpiperazin-1-yl)ethyl)benzamide fumarate]
% TGI ([1]; 12 mg/kg p.o. BID): 40%
% TGI ([1]; 36 mg/kg p.o. BID): 52%
% TGI ([2]; 12 mg/kg p.o. BID): 59%
% TGI ([2]; 36 mg/kg p.o. BID): 62%
% TGI ([4]; 12 mg/kg p.o. BID): 26%
% TGI ([4]; 36 mg/kg p.o. BID): 36%
bioavailability [5]: high bioavailability
